Our source for the IC50 values is patent publication US8946439B2, “Amide compounds, compositions and uses thereof” (Evotec AG, priority 2008, dated 2015).

The structures appear in SMILES notation. Like-named read-outs stand apart in the source and are kept apart here.

For one test, the target named is T1, hP2X2/3H (Homo sapiens, UniProt P56373+Q9UBL9).
T1 construct: expressed in transfected cells; host or cells: e.g. HEK293 or 1321N1
T1 sequence (Q9UBL9 1-471): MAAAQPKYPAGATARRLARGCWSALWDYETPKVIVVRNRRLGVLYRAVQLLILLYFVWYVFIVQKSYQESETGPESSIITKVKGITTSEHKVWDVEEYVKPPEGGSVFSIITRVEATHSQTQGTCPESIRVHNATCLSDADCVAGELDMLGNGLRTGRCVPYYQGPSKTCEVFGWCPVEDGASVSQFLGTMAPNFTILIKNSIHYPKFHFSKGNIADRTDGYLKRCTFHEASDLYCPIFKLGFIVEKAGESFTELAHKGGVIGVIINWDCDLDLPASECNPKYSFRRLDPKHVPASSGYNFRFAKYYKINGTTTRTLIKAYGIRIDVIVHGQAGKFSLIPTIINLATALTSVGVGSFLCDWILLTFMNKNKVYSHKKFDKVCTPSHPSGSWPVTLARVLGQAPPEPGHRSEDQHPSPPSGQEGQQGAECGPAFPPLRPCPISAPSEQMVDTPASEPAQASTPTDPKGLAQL
T1 sequence (P56373 1-397): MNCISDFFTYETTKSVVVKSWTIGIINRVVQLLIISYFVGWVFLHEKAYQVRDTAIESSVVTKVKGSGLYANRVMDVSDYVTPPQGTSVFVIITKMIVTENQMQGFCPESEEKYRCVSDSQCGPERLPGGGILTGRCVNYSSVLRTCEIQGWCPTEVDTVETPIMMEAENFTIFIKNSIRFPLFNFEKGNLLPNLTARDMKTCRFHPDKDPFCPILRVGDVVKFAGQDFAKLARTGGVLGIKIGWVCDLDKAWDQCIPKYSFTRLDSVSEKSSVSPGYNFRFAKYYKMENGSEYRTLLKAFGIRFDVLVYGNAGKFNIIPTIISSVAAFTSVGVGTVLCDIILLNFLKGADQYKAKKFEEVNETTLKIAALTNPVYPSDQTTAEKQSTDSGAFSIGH
Description: Calcium uptake assay (P2X antagonist assay), P2X2/3 heteromer. It counts as cell-based. The note with it: hP2X2/3H. The procedure, abridged:
(§1)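 Stably or transiently transfected HEK293 or 1321N1 cells; the heteromer is made by adding P2X3 to a P2X2-stable line, with heteromer function isolated pharmacologically. The peak-minus-baseline FLIPR calcium signal gives % inhibition and a 4-parameter-logistic IC50.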

The next test deals with T2, hP2X3 (Homo sapiens, UniProt P56373).
T2 construct: expressed in transfected cells; host or cells: e.g. HEK293 or 1321N1
T2 sequence (P56373 1-397): T1 sequence (P56373 1-397)
Description: Calcium uptake assay (P2X antagonist assay), P2X3 homomer. It counts as cell-based. The note with it: hP2X3. The essentials: as §1

Setting [1] is: calcium uptake assay, read-out: IC50 hP2X2/3H (nM), Ca Influx.
Setting [2] is: calcium uptake assay, read-out: IC50 hP2X3 (nM), Ca Influx.
Setting [3] is: Ca influx (calcium uptake assay), read-out: IC50 hP2X2/3H.
The mark [4] stands for this setting: Ca influx (calcium uptake assay), read-out: IC50 hP2X3.

Take `Cc1ccc(-c2cc(C(=O)NCc3ccc(Cl)c(S(=O)(=O)NC4CC4)c3)cc(C(=O)N3CCCC3)c2)cc1` [Compound 73, N-(4-Chloro-3-(N-cyclopropylsulfamoyl)benzyl)-4′-methyl-5-(pyrrolidine-1-carbonyl)biphenyl-3-carboxamide]: the IC50 at hP2X2/3H (setting [1]) lay in the range of 501 to 1000 nM; on hP2X3 (setting [2]), 100 to 500 nM.

On to `Cc1ccc(-c2cc(C(=O)N[C@H](C)c3cnc(C)nc3)cc(C(=O)N3CCCC3)c2)cc1` [Compound 52], for which the IC50 on hP2X2/3H (setting [1]) and at hP2X3 (setting [2]) was below 100 nM throughout.

As to `Cc1ccc(-c2cc(OC3CCOC3)cc(C(=O)N[C@H](C)c3cnc(C)nc3)c2)cc1` (some centres unmarked) [Compound 359], the IC50 on hP2X2/3H (setting [3]) and at hP2X3 (setting [4]) was below 100 nM throughout.

Consider `Cc1ccc(-c2cc(CO)cc(C(=O)N[C@H](C)c3cnc(C)nc3)c2)c(C#N)c1` [Compound 303], for which the figures for the IC50 on hP2X2/3H (setting [3]) and at hP2X3 (setting [4]) were 100 to 500 nM and below 100 nM, respectively.

In the case of `Cc1ccc(-c2cc(C(=O)NCc3ccc(C)nc3)cc(C(O)CN3CCOCC3)c2)cc1` (centres unmarked) [Compound 365, 5-(1-Hydroxy-2-morpholinoethyl)-4′-methyl-N-((6-methylpyridin-3-yl)methyl)biphenyl-3-carboxamide], the IC50 at hP2X2/3H (setting [3]) and at hP2X3 (setting [4]) was below 100 nM in each case.

As for `Cc1ccc(-c2cc(C(=O)NCc3ncc(Cl)cc3Cl)cc(C(=O)N3CC(O)C3)c2)cc1` [Compound 134], the IC50 on hP2X2/3H (setting [1]) and on hP2X3 (setting [2]) was below 100 nM throughout.

As to `Cc1ccc(-c2cc(C(=O)NCc3ccc(C(F)(F)F)nc3)cc(C(=O)N3CCCC3)c2)nc1` [Compound 123], the IC50 at hP2X2/3H (setting [1]) and at hP2X3 (setting [2]) was below 100 nM throughout.

As to `Cc1ccc(-c2cc(C(=O)N[C@H](C)c3cnc(C)nc3)cc(C(O)c3ccccn3)c2)cc1` (some centres unmarked) [Compound 268], the IC50 on hP2X2/3H (setting [3]) and at hP2X3 (setting [4]) was below 100 nM throughout.

As to `Cc1ccc(-c2cc(C(=O)N[C@H](CO)c3cnc(C)nc3)cc(C(=O)N3CCCC3)c2)cc1` [Compound 96], the IC50 on hP2X2/3H (setting [1]) and on hP2X3 (setting [2]) was below 100 nM in each case.

With `Cc1ccc(-c2cc(C(=O)NCc3ccc(C)nc3)cc(C(=O)N3CC[C@H](O)C3)c2)cc1` [Compound 95, (S)-5-(3-Hydroxypyrrolidine-1-carbonyl)-4′-methyl-N-((6-methylpyridin-3-yl)methyl)biphenyl-3-carboxamide], the IC50 on hP2X2/3H (setting [1]) is 100 to 500 nM; on hP2X3 (setting [2]), below 100 nM.

On to `Cc1ccc(-c2cc(C(=O)NCc3ccc(C)nc3)cc(C(=O)N3C4CCC3CC4)c2)cc1` [Compound 193], for which the IC50 on hP2X2/3H (setting [1]) and on hP2X3 (setting [2]) was below 100 nM in each case.

On to `Cc1ccc(-c2cc(C(=O)NCc3ccc(C)nc3)cc(C(=O)N(C)c3ccccn3)c2)cc1` [Compound 164], for which the IC50 on hP2X2/3H (setting [1]) is 100 to 500 nM; at hP2X3 (setting [2]) it was below 100 nM.

With `Cc1ccc(-c2cc(C(=O)NCc3ccc(C)nc3)cc(C(=O)N(C)[C@H]3CCNC3)c2)cc1` [Compound 172], the IC50 at hP2X2/3H (setting [1]) is 100 to 500 nM; at hP2X3 (setting [2]), below 100 nM.

Consider `Cc1ccc(-c2cc(C(=O)NCc3ccc(C(F)(F)F)nc3)cc(C(=O)N3CC[C@@H](O)C3)c2)cc1` [Compound 156], for which the IC50 at hP2X2/3H (setting [1]) was 100 to 500 nM; at hP2X3 (setting [2]), below 100 nM.

Take `Cc1ccc(-c2cc(OCC3CNCCO3)cc(C(=O)N[C@H](C)c3ccc(C)nc3)c2)c(C#N)c1` (stereo partly drawn) [Compound 324, 2′-Cyano-4′-methyl-N—((R)-1-(6-methylpyridin-3-yl)ethyl)-5-(morpholin-2-ylmethoxy)biphenyl-3-carboxamide]: the IC50 is 100 to 500 nM at hP2X2/3H (setting [3]) and below 100 nM at hP2X3 (setting [4]).

Regarding `Cc1ccc(-c2cc(C(=O)NCc3ccc(C)nc3)cc(C(=O)N(C)C3CCNCC3)c2)cc1` [Compound 167], the IC50 was above 1000 nM at hP2X2/3H (setting [1]) and 100 to 500 nM at hP2X3 (setting [2]).

With `Cc1ccc(-c2cc(C(=O)NCc3cnc(C)nc3)cc(S(=O)(=O)C(C)C)c2)cc1` [Compound 201], the IC50 at hP2X2/3H (setting [3]) and at hP2X3 (setting [4]) was below 100 nM throughout.

`Cc1ccc(-c2cc(C(=O)N[C@H](C)c3cnc(C)nc3)cc(S(=O)(=O)C(C)C)c2)cc1` [Compound 198]: the IC50 on hP2X2/3H (setting [3]) and on hP2X3 (setting [4]) was below 100 nM each time.

As to `Cc1ccc(-c2cc(C(=O)N[C@@H](C)CO)cc(S(C)(=O)=O)c2)cc1` [Compound 3, (S)—N-(1-hydroxypronan-2-yl)-4′-methyl-5-(methylsulfonyl)biphenyl-3-carboxamide], the IC50 was above 1000 nM at hP2X2/3H (setting [1]) and 100 to 500 nM at hP2X3 (setting [2]).

On to `Cc1ccc(-c2cc(OCCO)cc(C(=O)NCc3ccc(C)nc3)c2)cc1` [Compound 301], for which the IC50 on hP2X2/3H (setting [3]) is 100 to 500 nM; at hP2X3 (setting [4]), below 100 nM.

On to `Cc1ccc(-c2cc(Oc3nc(Cl)cs3)cc(C(=O)N[C@H](C)c3ccc(C)nc3)c2)cc1` [Compound 341], for which the IC50 was below 100 nM at hP2X2/3H (setting [3]) and 100 to 500 nM at hP2X3 (setting [4]).

Turning to `Cc1ccc(-c2cc(C(=O)N[C@H](C)c3ccc(C)nc3)cc(C(O)c3nccs3)c2)c(C#N)c1` (some centres unmarked) [Compound 294], the IC50 at hP2X2/3H (setting [3]) and at hP2X3 (setting [4]) was below 100 nM in each case.

With `Cc1ccc(-c2cc(C(=O)N[C@H](C)c3ccc(C(F)(F)F)nc3)cc(C(=O)N3CC(O)C3)c2)cc1` [Compound 85], the IC50 on hP2X2/3H (setting [1]) and on hP2X3 (setting [2]) was below 100 nM in each case.

On to `Cc1ccc(-c2cc(C(=O)N[C@H](C)c3ccc(C(F)(F)F)nc3)cc(C(=O)N(C)CC(C)C)c2)cc1` [Compound 10, (R)—N3-Isobutyl-N3,4′-dimethyl-N5-(1-(6-(trifluoromethyl)pyridin-3-yl)ethyl)biphenyl-3,5-dicarboxamide], for which the IC50 at hP2X2/3H (setting [1]) and at hP2X3 (setting [2]) was 100 to 500 nM throughout.

`Cc1ccc(-c2cc(C(=O)NCc3ccc(Cl)nc3)cc(C(=O)N(C)CC(C)C)c2)cc1` [Compound 9, N3-((6-Chloropyridin-3-yl)methyl)-N5-isobutyl-N5,4′-dimethylbiphenyl-3,5-dicarboxamide]: the IC50 at hP2X2/3H (setting [1]) and at hP2X3 (setting [2]) was below 100 nM in each case.

Turning to `Cc1ccc(-c2cc(C(=O)N[C@H](C)c3ccc(C)nc3)cc(C(=O)N3CCCC3)c2)cc1` [Compound 176], the IC50 on hP2X2/3H (setting [1]) and at hP2X3 (setting [2]) was below 100 nM in each case.

Take `Cc1ccc(-c2cc(OCC3CCOC3)cc(C(=O)N[C@H](C)c3ccc(C)nc3)c2)c(C#N)c1` (some centres unmarked) [Compound 313]: the IC50 on hP2X2/3H (setting [3]) and on hP2X3 (setting [4]) was below 100 nM in each case.

With `COc1ncc(CNC(=O)c2cc(C(=O)N3CCCC3)cc(-c3ccc(C)cc3)c2)cn1` [Compound 48], the IC50 on hP2X2/3H (setting [1]) and at hP2X3 (setting [2]) was below 100 nM in each case.

As for `Cc1ccc(-c2cc(C(=O)NCc3ccc(C)nc3)cc(C(O)CN(C)C)c2)cc1` (centres unmarked) [Compound 367], the IC50 is above 1000 nM on hP2X2/3H (setting [3]) and below 100 nM on hP2X3 (setting [4]).

Turning to `CCC(O)c1cc(C(=O)N[C@H](C)c2ccc(C)nc2)cc(-c2ccc(C)cc2)c1` (some centres unmarked) [Compound 379], the IC50 on hP2X2/3H (setting [3]) and at hP2X3 (setting [4]) was below 100 nM throughout.

For the compound `Cc1ccc(-c2cc(C(=O)N[C@H](C)c3ccc(C)nc3)cc(C(C)O)c2)c(C#N)c1` (some centres unmarked) [Compound 311], the IC50 at hP2X2/3H (setting [3]) and at hP2X3 (setting [4]) was below 100 nM each time.

`Cc1ccc(-c2cc(Oc3nc(Cl)cs3)cc(C(=O)N[C@H](C)c3ccc(C)nc3)c2)nc1` [Compound 384]: the IC50 on hP2X2/3H (setting [3]) and at hP2X3 (setting [4]) was below 100 nM each time.

Consider `Cc1ccc(-c2cc(C(=O)NCc3ccc(C(F)(F)F)nc3)cc(C(=O)N3CC(O)C3)c2)c(C#N)c1` [Compound 64], for which the IC50 at hP2X2/3H (setting [1]) and on hP2X3 (setting [2]) was below 100 nM each time.

Take `Cc1ccc(-c2cc(C(=O)N[C@H](C)c3ccc(C(F)(F)F)nc3)cc(C(=O)N3CCCC3)c2)cc1` [Compound 46]: the IC50 on hP2X2/3H (setting [1]) was below 100 nM; on hP2X3 (setting [2]) it was 100 to 500 nM.

As to `Cc1ccc(-c2cc(C(=O)N[C@H](CO)c3ccc(C(F)(F)F)nc3)cc(C(=O)N3CCCC3)c2)cc1` [Compound 92], the IC50 on hP2X2/3H (setting [1]) and at hP2X3 (setting [2]) was below 100 nM in each case.

As for `Cc1ccc(-c2cc(OC3COCC3O)cc(C(=O)N[C@H](C)c3ccc(C)nc3)c2)cc1` (stereo partly drawn) [Compound 336, 5-(4-Hydroxytetrahydrofuran-3-yloxy)-4′-methyl-N—((R)-1-(6-methylpyridin-3-yl)ethyl)biphenyl-3-carboxamide], the IC50 at hP2X2/3H (setting [3]) and at hP2X3 (setting [4]) was below 100 nM throughout.

As for `Cc1ccc(-c2cc(OC3CCOC3)cc(C(=O)N[C@H](C)c3ccc(C)nc3)c2)cc1` (stereo partly drawn) [Compound 308, 4′-Methyl-N—((R)-1-(6-methylpyridin-3-yl)ethyl)-5-(tetrahydrofuran-3-yloxy)biphenyl-3-carboxamide], the IC50 at hP2X2/3H (setting [3]) and on hP2X3 (setting [4]) was below 100 nM each time.
